≈ marks a conversion by molar mass, not a printed value. Like-named read-outs stand apart in the source and are kept apart here.
Legend:
[1] = system: P. aeruginosa ATCC 27853; assay: MIC determination; assay type: cell-based; details: Pseudomonas aeruginosa, ATCC27853; Table 5; Mueller-Hinton medium; G = P. aeruginosa ATCC 27853; read-out: MIC strain G
[2] = system: E. coli MC1061; assay: MIC determination; assay type: cell-based; details: Escherichia coli; Table 5; Mueller-Hinton medium; D = E. coli MC1061; read-out: MIC strain D
[3] = system: S. enterica ATCC 14028; assay: MIC determination; assay type: cell-based; details: Salmonella enterica, ATCC14028; Table 5; Mueller-Hinton medium; H = S. enterica ATCC 14028; read-out: MIC strain H
[4] = system: Ab ATCC 19606 (strain I); assay: MIC determination (double dilution, Mueller-Hinton broth); assay type: cell-based, Acinetobacter baumannii; details: Acinetobacter baumannii, ATCC19606
Experimental: All bacterial strains listed above were stored at −80° C. All strains were streaked on Mueller-Hinton (MH) plates and allowed to grow at 37° C. overnight. […] The resulting culture was diluted 1:1000 and added to the prepared serially doubly diluted compound solutions in 96-well plates. For M. smegmatis, a 1:100 dilution of the bacteria was done in MH. All MIC values were determined using 96-well plates with low evaporation seals at least in duplicate. For each row, one well was reserved for sterile control (which consisted of 200 μL of MH medium) and another well was reserved for growth control (which consisted of 100 μL of MH medium seeded with 100 μL of bacterial culture).
(§1) Minimum inhibitory concentrations (MIC) of all compounds from the series were measured in liquid cultures of different Ab strains by a double-dilution method in Mueller-Hinton broth. Initially, the activity of all 46 compounds against Ab ATCC 19606 (a control strain) and Ab ATCC BAA1605 (a multidrug-resistant strain) (Table 1; data shown for 27 representative compounds) was measured.

[5] = system: all 43 strains of A. baumannii (41 CDC strains and 2 ATCC strains); assay: MIC value statistics for all A. baumannii strains; assay type: cell-based, Acinetobacter baumannii; details: of 43 A. baumannii strains
Experimental: All bacterial strains listed above were stored at −80° C. All strains were streaked on Mueller-Hinton (MH) plates and allowed to grow at 37° C. overnight. Enough colonies were scraped from the plate and suspended in MH broth with vortexing to reach an attenuance at 600 nm (OD600) of ˜0.5. The resulting culture was diluted 1:1000 and added to the prepared serially doubly diluted compound solutions in 96-well plates. […]. For each row, one well was reserved for sterile control (which consisted of 200 μL of MH medium) and another well was reserved for growth control (which consisted of 100 μL of MH medium seeded with 100 μL of bacterial culture).
Having established that the observed activity is selective to A. baumannii, all synthesized compounds were tested against a panel of antibiotic resistant A. baumannii from the Antimicrobial Resistant (AR) Isolate Bank from the CDC along with strains I and J (Table Si). […]. Based on this statistical analysis, the best compound is 5e followed closely by 3e.

[6] = system: B. anthracis Sterne F32; assay: microbe, parasite or virus in culture; assay type: cell-based; details: Bacillus anthracis, STERNEF32, read-out: MIC strain A
[7] = system: S. aureus ATCC 25923; assay: MIC determination; assay type: cell-based; details: Staphylococcus aureus, ATCC25923; Table 5; Mueller-Hinton medium; B = S. aureus ATCC 25923; read-out: MIC strain B
[8] = system: Gram-negative bacteria; assay: MIC determination, panel statement; assay type: cell-based; details: moderate activity
[9] = system: E. cloacae ATCC 13047; assay: MIC determination; assay type: cell-based; details: Enterobacter cloacae, ATCC13047; Table 5; Mueller-Hinton medium; E = E. cloacae ATCC 13047; read-out: MIC strain E
[10] = system: Ab ATCC BAA1605 (strain J, multidrug-resistant); assay: MIC determination; assay type: cell-based; details: Acinetobacter baumannii
Experimental: All bacterial strains listed above were stored at −80° C. All strains were streaked on Mueller-Hinton (MH) plates and allowed to grow at 37° C. overnight. Enough colonies were scraped from the plate and suspended in MH broth with vortexing to reach an attenuance at 600 nm (OD600) of ˜0.5. The resulting culture was diluted 1:1000 and added to the prepared serially doubly diluted compound solutions in 96-well plates. For M. smegmatis, a 1:100 dilution of the bacteria was done in MH. All MIC values were determined using 96-well plates with low evaporation seals at least in duplicate. For each row, one well was reserved for sterile control (which consisted of 200 μL of MH medium) and another well was reserved for growth control (which consisted of 100 μL of MH medium seeded with 100 μL of bacterial culture).
as §1

[11] = system: K. pneumoniae ATCC 27736; assay: MIC determination; assay type: cell-based; details: Klebsiella pneumoniae, ATCC27736; Table 5; Mueller-Hinton medium; F = K. pneumoniae ATCC 27736; read-out: MIC strain F
[12] = system: S. epidermidis ATCC 12228; assay: MIC determination; assay type: cell-based; details: Staphylococcus epidermidis, ATCC12228; Table 5; Mueller-Hinton medium; C = S. epidermidis ATCC 12228; read-out: MIC strain C
[13] = Table 1, control strain, read-out: MIC Ab ATCC 19606
[14] = Table 5, Mueller-Hinton medium, I = A. baumannii ATCC 19606, read-out: MIC strain I
[15] = Table 1, multidrug-resistant strain, read-out: MIC Ab ATCC BAA 1605
[16] = Table 5, Mueller-Hinton medium, J = A. baumannii BAA1605, read-out: MIC strain J

| SMILES | MIC [1] | MIC [2] | MIC [3] | MIC [4, 13] | MIC [4, 14] | number of compound/strain combinations with MIC value 0.25 μg/mL [5] | number of compound/strain combinations with MIC value 0.5 μg/mL [5] | number of compound/strain combinations with MIC value 1 μg/mL [5] | number of compound/strain combinations with MIC value ≤0.125 μg/mL [5] | MIC [6] | MIC [7] | MIC [9] | MIC [10, 15] | MIC [10, 16] | MIC [11] | MIC [12] | other results |
| --- | --- | --- | --- | --- | --- | --- | --- | --- | --- | --- | --- | --- | --- | --- | --- | --- | --- |
| O=C(NNc1ccc(Cl)cc1)c1ccc(F)cc1F [Compound 1e] | > 64 µg/mL | 16 µg/mL (≈ 56.6 µM) | > 64 µg/mL | 0.25 µg/mL (≈ 0.884 µM) | 0.25 µg/mL (≈ 0.884 µM) | 17 | 12 | 5 | 8 | > 64 µg/mL | > 64 µg/mL | 16 µg/mL (≈ 56.6 µM) | 0.25 µg/mL (≈ 0.884 µM) | 0.25 µg/mL (≈ 0.884 µM) | > 64 µg/mL | > 64 µg/mL | number of compound/strain combinations with MIC value 2 μg/mL [5]: 1; MIC [8]: 4 to 16 µg/mL (≈ 14.2 to 56.6 µM) |
| O=C(NNc1cccc(F)c1)c1ccc(F)cn1 [Compound 3a] | > 64 µg/mL | 64 µg/mL (≈ 257 µM) | > 64 µg/mL | 0.5 µg/mL (≈ 2.01 µM) | 0.5 µg/mL (≈ 2.01 µM) | 16 | 18 | – | 9 | > 64 µg/mL | > 64 µg/mL | > 64 µg/mL | 0.5 µg/mL (≈ 2.01 µM) | 0.5 µg/mL (≈ 2.01 µM) | > 64 µg/mL | > 64 µg/mL | – |
| COc1cccc(NNC(=O)c2ccc(F)cn2)c1 [Compound 3c] | > 64 µg/mL | > 64 µg/mL | > 64 µg/mL | 0.5 µg/mL (≈ 1.91 µM) | 0.5 µg/mL (≈ 1.91 µM) | 2 | 12 | 23 | 1 | > 64 µg/mL | > 64 µg/mL | > 64 µg/mL | 0.5 µg/mL (≈ 1.91 µM) | 0.5 µg/mL (≈ 1.91 µM) | > 64 µg/mL | 64 µg/mL (≈ 245 µM) | number of compound/strain combinations with MIC value 2 μg/mL [5]: 5 |
| O=C(NNc1ccc(F)cc1)c1ccc(F)cn1 [Compound 3d] | > 64 µg/mL | 64 µg/mL (≈ 257 µM) | 64 µg/mL (≈ 257 µM) | 0.5 µg/mL (≈ 2.01 µM) | 0.5 µg/mL (≈ 2.01 µM) | 10 | 19 | 13 | 1 | > 64 µg/mL | > 64 µg/mL | 64 µg/mL (≈ 257 µM) | 0.25 µg/mL (≈ 1 µM) | 0.25 µg/mL (≈ 1 µM) | 64 µg/mL (≈ 257 µM) | > 64 µg/mL | – |
| COc1ccc(NNC(=O)c2ccc(F)cn2)cc1 [Compound 3f] | > 64 µg/mL | > 64 µg/mL | > 64 µg/mL | 1 µg/mL (≈ 3.83 µM) | 1 µg/mL (≈ 3.83 µM) | 1 | 2 | 9 | – | > 64 µg/mL | > 64 µg/mL | > 64 µg/mL | 0.5 µg/mL (≈ 1.91 µM) | 0.5 µg/mL (≈ 1.91 µM) | > 64 µg/mL | > 64 µg/mL | number of compound/strain combinations with MIC value 2 μg/mL [5]: 19; number of compound/strain combinations with MIC value 4 μg/mL [5]: 11; number of compound/strain combinations with MIC value 8 μg/mL [5]: 1 |
| O=C(NNc1ccc(Cl)cc1)c1ccc2ccccc2n1 [Compound 12e] | > 64 µg/mL | 16 µg/mL (≈ 53.7 µM) | > 64 µg/mL | 0.5 µg/mL (≈ 1.68 µM) | 0.5 µg/mL (≈ 1.68 µM) | 7 | 19 | 17 | – | > 64 µg/mL | > 64 µg/mL | > 64 µg/mL | 0.5 µg/mL (≈ 1.68 µM) | 0.5 µg/mL (≈ 1.68 µM) | > 64 µg/mL | > 64 µg/mL | – |
| CCOC(=O)CNNC(=O)c1ccc2ccccc2n1 [Compound 12g] | > 64 µg/mL | > 64 µg/mL | > 64 µg/mL | – | > 64 µg/mL | – | – | – | – | > 64 µg/mL | > 64 µg/mL | > 64 µg/mL | – | > 64 µg/mL | > 64 µg/mL | > 64 µg/mL | number of compound/strain combinations with MIC value >64 μg/mL [5]: 43 |
| O=C(NNC1CCCCC1)c1ccc2ccccc2n1 [Compound 12h] | > 64 µg/mL | 64 µg/mL (≈ 238 µM) | > 64 µg/mL | – | > 64 µg/mL | – | – | – | – | > 64 µg/mL | > 64 µg/mL | > 64 µg/mL | – | > 64 µg/mL | > 64 µg/mL | > 64 µg/mL | number of compound/strain combinations with MIC value >64 μg/mL [5]: 43 |
| O=C(NNc1ccc(Cl)cc1)c1cc2ccccc2[nH]1 [Compound 14e] | > 64 µg/mL | > 64 µg/mL | > 64 µg/mL | – | 0.5 µg/mL (≈ 1.75 µM) | 18 | 20 | 2 | 3 | > 64 µg/mL | > 64 µg/mL | > 64 µg/mL | – | 0.25 µg/mL (≈ 0.875 µM) | > 64 µg/mL | > 64 µg/mL | – |
| O=C(NNc1ccc(Cl)cc1)c1ccco1 [Compound 15e] | > 64 µg/mL | 16 µg/mL (≈ 67.6 µM) | 16 µg/mL (≈ 67.6 µM) | 0.5 µg/mL (≈ 2.11 µM) | 0.5 µg/mL (≈ 2.11 µM) | 18 | 10 | 2 | 13 | > 64 µg/mL | 64 µg/mL (≈ 270 µM) | 4 µg/mL (≈ 16.9 µM) | ≤ 0.125 µg/mL | ≤ 0.125 µg/mL | 16 µg/mL (≈ 67.6 µM) | 64 µg/mL (≈ 270 µM) | – |
| CCC(=O)NNc1ccc(Cl)cc1 [Compound 16e] | > 64 µg/mL | 16 µg/mL (≈ 80.5 µM) | 64 µg/mL (≈ 322 µM) | ≤ 0.25 µg/mL | ≤ 0.125 µg/mL | 17 | 10 | 1 | 15 | > 64 µg/mL | > 64 µg/mL | 16 µg/mL (≈ 80.5 µM) | ≤ 0.125 µg/mL | ≤ 0.125 µg/mL | 16 µg/mL (≈ 80.5 µM) | > 64 µg/mL | – |
| C=CC(=O)NNc1ccc(Cl)cc1 [Compound 17e] | > 64 µg/mL | 16 µg/mL (≈ 81.4 µM) | 16 µg/mL (≈ 81.4 µM) | 0.25 µg/mL (≈ 1.27 µM) | 0.25 µg/mL (≈ 1.27 µM) | 21 | 13 | – | 9 | > 64 µg/mL | 64 µg/mL (≈ 325 µM) | 16 µg/mL (≈ 81.4 µM) | 0.25 µg/mL (≈ 1.27 µM) | 0.25 µg/mL (≈ 1.27 µM) | 16 µg/mL (≈ 81.4 µM) | 64 µg/mL (≈ 325 µM) | – |

Reference: patent publication US20260041683A1, “Compounds with Anti-Acinetobacter Baumannii Activity” (University of Kentucky Research Foundation, priority 2022, published 2026)
